This is an account of results in patent US20190077774A1, “PEROXISOME PROLIFERATOR-ACTIVATED RECEPTOR AGONISTS” (City of Hope, priority 2017, published 2019).

The target of one assay is T1, human PPARα (Homo sapiens, UniProt Q07869).
T1 construct: expressed in transfected cells; host or cells: CV-1 (monkey kidney) cells, transient transfection
T1 sequence (Q07869 159-468): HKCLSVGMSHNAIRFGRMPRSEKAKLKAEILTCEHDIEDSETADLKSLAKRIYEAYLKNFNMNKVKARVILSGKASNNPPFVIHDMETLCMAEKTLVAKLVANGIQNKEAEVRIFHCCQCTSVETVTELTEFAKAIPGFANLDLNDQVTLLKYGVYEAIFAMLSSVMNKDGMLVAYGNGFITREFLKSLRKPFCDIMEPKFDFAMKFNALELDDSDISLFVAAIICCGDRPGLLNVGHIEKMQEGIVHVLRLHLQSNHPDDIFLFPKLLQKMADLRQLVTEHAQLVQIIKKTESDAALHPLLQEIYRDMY
The experiment in a line: PPAR-GAL4 transactivation assay in transiently transfected CV-1 cells. The conditions noted are these: PPAR-GAL4 chimeric receptor, CV-1 cells; read-out: EC50(nM) hPPARα. In kind it is cell-based. On the procedure: (§1) To assess the functional transcriptional activity of these compounds, cell-based assays using chimeric receptor Gal4 DNA-binding domain (DBD)-NR ligand binding domain cotransfection assay (LBDs of PPARα, PPARγ, and PPARδ) were performed. As an initial screen to determine the PPARα activity and selectivity, all compounds were evaluated for in vitro potency and selectivity by transfection testing, using CV-1 cells transfected with human and mouse PPARs. MH100×4 is a luciferase reporter with four copies of a GAL4 UASG response element, where GAL-I refers to the ligand-binding domain of the indicated receptor fused to the C-terminus of the GAL4 DNA-binding domain. Assays were performed using a Biomek automated workstation in which the genes for the nuclear receptor, as well as a plasmid containing a response element upstream of a luciferase cDNA, are transfected into CV-1 cells. Compounds were evaluated for their ability to activate human and mouse PPARs at […] test concentrations. […] The transactivation activity of the series of compounds (DY121-132, 10a-g) toward PPARα was expressed as EC50, which is the concentration of the test compound that affords half-maximum activity, as summarized in Table 1.
Cell-based reporter gene assays Cell based transactivation assays were performed in CV 1 cells as described (Forman, et al.). PPARα activity was assayed with a GAL4 reporter construct and fusion proteins containing the ligand binding domains of human PPARα, human PPARγ and human PPARδ linked to the DNA binding domain of yeast GAL4. Reporter constructs (300 ng/10^5 cells) and cytomegalovirus-driven expression vectors (20-50 ng/10^5 cells) were added as indicated along with CMX-b-gal (500 ng/10^5 cells) as an internal control. Cells were transiently transfected by Lipofectamine as described. Cells were incubated with DNA complexed liposomes for 2 h and subsequently treated for approximately 45 h with phenol red free DMEM FBS containing the indicated compounds. After exposure to ligand, the cells were harvested and assayed for luciferase and β-galactosidase activity. All points were assayed in triplicate and varied by less than 15%. Each experiment was repeated three or more times with similar results. Fold activation is reported.
(§2) In vitro binding and transfection studies. As an initial screen to determine the PPARα, PPARγ, and PPARδ activity, all compounds were evaluated for in vitro potency and selectivity by transfection testing, using CV-1 cells transfected with human and mouse PPARs. MH100×4 is a luciferase reporter with four copies of a GAL4 USAG response element, where GAL-I refers to the ligand-binding domain of the indicated receptor fused to the C-terminus of the GAL4 DNA-binding domain. Assays were performed using a Biomek automated workstation in which the gene for the nuclear receptor, as well as a plasmid containing a response element upstream of a luciferase cDNA, are transfected into CV-1 cells. Compounds were evaluated for their ability to activate human PPARs at 1, 2.5, 3, and 5 uM test concentrations.
(§3) Compounds were screened for agonist activity towards PPAR-GAL4 chimeric receptors in transiently transfected CV-1 cells as described. EC50 is the concentration of test compound that gave 50% maximum efficacy.

Another assay addresses T2, mouse PPARα (Mus musculus, UniProt P23204).
T2 construct: expressed in transfected cells; host or cells: CV-1 (monkey kidney) cells, transient transfection
T2 sequence (P23204 159-468): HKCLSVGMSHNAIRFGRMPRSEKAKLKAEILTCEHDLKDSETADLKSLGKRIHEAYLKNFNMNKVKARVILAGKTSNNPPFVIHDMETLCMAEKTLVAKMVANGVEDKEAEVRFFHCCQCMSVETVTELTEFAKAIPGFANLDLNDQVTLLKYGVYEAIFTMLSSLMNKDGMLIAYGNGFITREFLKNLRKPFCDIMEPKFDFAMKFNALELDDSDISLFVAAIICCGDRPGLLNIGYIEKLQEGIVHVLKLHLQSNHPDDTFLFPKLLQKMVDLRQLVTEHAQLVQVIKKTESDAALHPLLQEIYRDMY
The assay is described as above. The conditions noted are these: PPAR-GAL4 chimeric receptor, read-out: EC50(nM) mPPARα. The class given is cell-based. The method, then:
as §1, §2, §3

A further assay concerns the target T3, PPARα (Homo sapiens, UniProt Q07869).
T3 construct: expressed in transfected cells; host or cells: CV-1 (monkey kidney) cells
T3 sequence (Q07869 1-468): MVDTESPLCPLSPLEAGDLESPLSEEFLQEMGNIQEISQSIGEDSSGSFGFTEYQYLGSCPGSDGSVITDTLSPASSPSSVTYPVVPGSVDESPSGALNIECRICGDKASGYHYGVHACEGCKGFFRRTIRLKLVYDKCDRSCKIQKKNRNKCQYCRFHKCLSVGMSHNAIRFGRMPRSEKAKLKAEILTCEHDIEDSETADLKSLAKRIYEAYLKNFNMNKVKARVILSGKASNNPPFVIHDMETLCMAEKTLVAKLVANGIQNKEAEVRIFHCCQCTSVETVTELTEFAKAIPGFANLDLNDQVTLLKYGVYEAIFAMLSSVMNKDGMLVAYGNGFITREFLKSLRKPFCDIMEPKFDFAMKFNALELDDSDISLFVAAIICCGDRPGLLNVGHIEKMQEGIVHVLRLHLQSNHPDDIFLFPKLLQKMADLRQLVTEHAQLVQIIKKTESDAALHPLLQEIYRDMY
T3 sequence (P19793 1-462 partner): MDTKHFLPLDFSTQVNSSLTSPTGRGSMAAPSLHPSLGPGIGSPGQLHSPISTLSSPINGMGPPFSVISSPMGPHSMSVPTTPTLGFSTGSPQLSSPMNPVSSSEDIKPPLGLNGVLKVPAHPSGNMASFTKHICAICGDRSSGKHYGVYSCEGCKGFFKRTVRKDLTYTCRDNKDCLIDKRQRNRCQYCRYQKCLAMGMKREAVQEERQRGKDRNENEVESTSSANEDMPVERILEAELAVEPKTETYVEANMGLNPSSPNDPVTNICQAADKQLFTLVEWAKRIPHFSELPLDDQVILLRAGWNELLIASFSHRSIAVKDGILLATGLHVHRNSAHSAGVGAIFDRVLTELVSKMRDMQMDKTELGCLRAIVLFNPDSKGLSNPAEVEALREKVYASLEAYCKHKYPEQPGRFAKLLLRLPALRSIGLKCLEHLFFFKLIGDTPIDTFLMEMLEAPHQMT
Briefly: PPRE-luc reporter assay in CV-1 cells co-transfected with PPARα and RXRα expression plasmids. The conditions noted are these: luciferase reporter. The class given is cell-based. The method, then: In brief, monkey kidney CV-1 cells were co-transfected with appropriate reporter constructs and expression vectors. The fold activation of the reporter construct by ligand was determined at several concentrations of selected compounds (FIG. 4).^20 To examine the effect of DY-compound on PPARα-mediated PPRE transcriptional activation, a PPRE-luc reporter assay was conducted using a PPRE-driven luciferase reporter-gene (PPRE-luc) plasmid and PPARα and RXRα gene expression plasmids in CV-1 cells.

In the next assay the test system is C57Bl/6J female mice. Briefly: Serum triglyceride and lipid effects in C57Bl/6J female mice. The class given is in vivo. The conditions noted are these: FIG. 7.

Take `COc1cccc(Cn2c(CCCc3ccc(OC(C)(C)C(=O)O)cc3)nn(Cc3ccc(C)cc3)c2=O)c1` [10b, 2-(4-{3-[4-(3-Methoxy-benzyl)-1-(4-methyl-benzyl)-5-oxo-4,5-dihydro-1H[1,2,4]triazol-3-yl]-propyl}-phenoxy)-2-methyl-propionic acid]: the EC50 (in general, the concentration at which the effect is half-maximal) at human PPARα stood at 2 nM; at mouse PPARα it was 20 nM.

`Cc1ccc(Cn2nc(CCCc3ccc(OC(C)(C)C(=O)O)cc3)n(Cc3ccccc3)c2=O)cc1` [10c, 2-(4-{3-[4-Benzyl-1-(4-methyl-benzyl)-5-oxo-4,5-dihydro-1H[1,2,4]triazol-3-yl]-propyl}-phenoxy)-2-methyl-propionic acid]: the EC50 on human PPARα was 1.5 nM; on mouse PPARα, 20 nM.

In the case of `Cc1ccc(Cn2nc(CCCc3ccc(OC(C)(C)C(=O)O)cc3)n(Cc3ccc(F)cc3)c2=O)cc1` [10d, 2-(4-{3-[4-Fluoro-benzyl-1-(4-methyl-benzyl)-5-oxo-4,5-dihydro-1H[1,2,4]triazol-3-yl]-propyl}-phenoxy)-2-methyl-propionic acid], the EC50 on human PPARα is 1.5 nM; on mouse PPARα, 10 nM.

For `Cc1ccc(Cn2nc(CCCc3ccc(OC(C)(C)C(=O)O)cc3)n(Cc3ccc(C)cc3)c2=O)cc1` [10e, 2-(4-{3-[4-Methyl-benzyl-1-(4-methyl-benzyl)-5-oxo-4,5-dihydro-1H[1,2,4]triazol-3-yl]-propyl}-phenoxy)-2-methyl-propionic acid], the EC50 at human PPARα is 1 nM; on mouse PPARα it was 3 nM. In addition, the “PPARα activation / PPRE-luc activity” value at PPARα is listed as “highest PPARα activation”.

As for `COc1cc(Cn2c(CCCc3ccc(OC(C)(C)C(=O)O)cc3)nn(Cc3ccc(C)cc3)c2=O)cc(OC)c1OC` [10f, 2-(4-{3-[3,4,5-Trimethoxy-benzyl-1-(4-methyl-benzyl)-5-oxo-4,5-dihydro-1H[1,2,4]triazol-3-yl]-propyl}-phenoxy)-2-methyl-propionic acid], the EC50 on human PPARα worked out at 3 nM; at mouse PPARα, 30 nM. Further, the “dose-response of triglyceride suppression” value with C57Bl/6J female mice was “Dose-response suppression”.

`Cc1ccc(Cn2nc(CCCc3ccc(OC(C)(C)C(=O)O)cc3)n(Cc3ccccc3Cl)c2=O)cc1` [10g, 2-(4-{3-[2-Chloro-benzyl-1-(4-methyl-benzyl)-5-oxo-4,5-dihydro-11H[1,2,4]triazol-3-yl]-propyl}-phenoxy)-2-methyl-propionic acid]: the EC50 came out at 1 nM at human PPARα and 10 nM at mouse PPARα. Further, the “PPARα activation / PPRE-luc activity” value on PPARα is given as “highest PPARα activation”. Also, the “dose-response of triglyceride suppression” value in the assay with C57Bl/6J female mice was “Dose-response suppression”.

On to `C=Cc1ccc(Cn2nc(CCCc3ccc(OC(C)(C)C(=O)O)cc3)n(Cc3ccc(C)cc3)c2=O)cc1` [10h], for which the EC50 came out at 12 nM on human PPARα and 20 nM on mouse PPARα.
